Reference: patent publication US10072001B2, “Tank-binding kinase inhibitor compounds” (Gilead Sciences, Inc., priority 2014, dated 2018)

Columns and labels:
TBK1 = TBK1 (Homo sapiens (Human), UniProt Q9UHD2); assay: TR-FRET kinase assay, TBK1; settings: read-out: TBK1-IC50; full length recombinant TBK1 2.5 nM, 2x Km ATP, 1 μM peptide, 240 min at 25° C.; geometric mean of minimum four determinations
TBK1, sequence (Q9UHD2 whole entry): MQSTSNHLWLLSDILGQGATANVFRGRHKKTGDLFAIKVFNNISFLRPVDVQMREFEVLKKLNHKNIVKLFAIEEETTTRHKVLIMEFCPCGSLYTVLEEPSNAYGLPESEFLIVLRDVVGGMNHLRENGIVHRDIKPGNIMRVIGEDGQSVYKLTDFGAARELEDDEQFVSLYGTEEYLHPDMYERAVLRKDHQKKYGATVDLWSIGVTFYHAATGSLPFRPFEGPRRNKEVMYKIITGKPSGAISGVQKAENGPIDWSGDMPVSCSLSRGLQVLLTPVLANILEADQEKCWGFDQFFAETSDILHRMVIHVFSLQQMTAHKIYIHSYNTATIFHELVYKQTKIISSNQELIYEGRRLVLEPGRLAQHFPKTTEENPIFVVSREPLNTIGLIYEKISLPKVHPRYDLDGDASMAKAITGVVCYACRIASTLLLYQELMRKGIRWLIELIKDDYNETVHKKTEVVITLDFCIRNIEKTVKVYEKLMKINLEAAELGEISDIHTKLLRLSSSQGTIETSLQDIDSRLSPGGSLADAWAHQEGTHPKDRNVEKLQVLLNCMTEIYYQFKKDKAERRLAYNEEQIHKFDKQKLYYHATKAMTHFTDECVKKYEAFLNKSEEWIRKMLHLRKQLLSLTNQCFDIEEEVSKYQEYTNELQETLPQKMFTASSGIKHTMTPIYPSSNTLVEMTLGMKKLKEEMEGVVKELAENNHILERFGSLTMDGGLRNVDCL
Method: Enzymatic activity of IKKε and TBK1 was measured using a homogeneous time resolved fluorescence resonance energy transfer (TR-FRET) assay that monitors enzyme dependent phosphorylation of a biotinylated serine/threonine peptide substrate. […] TBK1 and IKKs were expressed and purified as full length recombinant proteins. Detection reagents for the assay were purchased from Cisbio. […] After an assay reaction time of 240 minutes at 25° C., reactions were terminated with EDTA.
Amount of phosphorylated peptide was determined by the addition of 125 nM streptavidin XL665 and europium cryptate labeled anti-phospho monoclonal antibody and the resulting TR-FRET signal was recorded on an Envision plate reader (Ex: 340 nm; Em: 615/665 nm; 100 μs delay and 200 μs read window). […] All IC50 values represent geometric mean values of a minimum of four determinations.

IKKε = IKKε (Homo sapiens (Human), UniProt Q14164); assay: TR-FRET kinase assay, IKKε; type: biochemical; settings: full length recombinant IKKε 0.3 nM, 2x Km ATP, 1 μM peptide, 240 min at 25° C.; geometric mean of minimum four determinations
IKKε, sequence (Q14164 whole entry): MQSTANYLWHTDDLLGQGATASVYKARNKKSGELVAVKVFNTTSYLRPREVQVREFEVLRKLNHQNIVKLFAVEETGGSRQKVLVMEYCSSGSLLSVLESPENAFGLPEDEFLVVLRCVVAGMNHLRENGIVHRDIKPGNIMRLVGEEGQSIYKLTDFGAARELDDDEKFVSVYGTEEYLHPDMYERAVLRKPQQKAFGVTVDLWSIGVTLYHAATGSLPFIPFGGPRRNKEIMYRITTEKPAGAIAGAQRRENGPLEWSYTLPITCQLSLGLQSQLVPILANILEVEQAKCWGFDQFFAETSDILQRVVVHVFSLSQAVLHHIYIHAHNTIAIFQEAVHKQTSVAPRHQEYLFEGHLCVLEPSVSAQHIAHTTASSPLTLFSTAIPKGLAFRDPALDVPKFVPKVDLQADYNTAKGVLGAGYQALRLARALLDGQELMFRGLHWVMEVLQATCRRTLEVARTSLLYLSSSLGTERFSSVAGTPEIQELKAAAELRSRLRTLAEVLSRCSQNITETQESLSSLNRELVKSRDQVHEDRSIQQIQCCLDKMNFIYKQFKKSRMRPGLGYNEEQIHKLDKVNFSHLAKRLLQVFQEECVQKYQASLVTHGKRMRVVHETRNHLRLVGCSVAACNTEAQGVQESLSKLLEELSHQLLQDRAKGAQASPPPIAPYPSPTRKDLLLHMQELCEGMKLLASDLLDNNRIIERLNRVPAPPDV
Source text: Biological Assay for TBK1 and IKKs:

SMILES | IC50 (TBK1) | IC50 (IKKε)
N#CCC(=O)N1CC[C@@H](Oc2ccc(-c3ncnc4[nH]c(-c5ccc(N6CCOCC6)cc5)cc34)cc2C#N)C1 [Example 107, (R)-2-((1-(2-cyanoacetyl)pyrrolidin-3-yl)oxy)-5-(6-(4-morpholinophenyl)-7H-pyrrolo[2,3-d]pyrimidin-4-yl)benzonitrile] | 2.26 nM | 11.7 nM
N#Cc1cc(-c2ncnc3[nH]c(-c4cccc(N5CCOCC5)c4)cc23)ccc1N1CC(O)C1 [Example 110, 2-(3-hydroxyazetidin-1-yl)-5-(6-(3-morpholinophenyl)-7H-pyrrolo[2,3-d]pyrimidin-4-yl)benzonitrile] | 12.6 nM | 57.4 nM
N#Cc1cc(-c2c(F)cnc3[nH]c(-c4ccc(OCCN5CCCC5)cc4)cc23)ccc1OC1CCOCC1 [Example 174, 5-(5-fluoro-2-(4-(2-(pyrrolidin-1-yl)ethoxy)phenyl)-1H-pyrrolo[2,3-b]pyridin-4-yl)-2-((tetrahydro-2H-pyran-4-yl)oxy)benzonitrile] | 6.35 nM | 8.3 nM
COc1cc(-c2cc3c(-c4ccc(OC5CCN(C(=O)CO)CC5(F)F)c(C#N)c4)ncnc3[nH]2)ccc1N1CCN(C2COC2)CC1 (stereo not shown) [Example 141, 2-((3,3-difluoro-1-(2-hydroxyacetyl)piperidin-4-yl)oxy)-5-(6-(3-methoxy-4-(4-(oxetan-3-yl)piperazin-1-yl)phenyl)-7H-pyrrolo[2,3-d]pyrimidin-4-yl)benzonitrile] | 0.763 nM | 0.687 nM
N#CCC(=O)N1CCC(Oc2ccc(-c3ccnc4[nH]c(-c5ccc(N6CCOCC6)cc5)cc34)cc2C#N)CC1 [Example 20, 2-((1-(2-cyanoacetyl)piperidin-4-yl)oxy)-5-(2-(4-morpholinophenyl)-1H-pyrrolo[2,3-b]pyridin-4-yl)benzonitrile] | 9.25 nM | 27.5 nM
N#Cc1cc(-c2ccnc3[nH]c(-c4ccc(N5CCOCC5)cc4)cc23)ccc1O[C@@H]1CCN(C2COC2)C1 [Example 87, (R)-5-(2-(4-morpholinophenyl)-1H-pyrrolo[2,3-b]pyridin-4-yl)-2-((1-(oxetan-3-yl)pyrrolidin-3-yl)oxy)benzonitrile] | 26.8 nM | 63 nM
N#Cc1cc(-c2ccnc3[nH]c(-c4ccc5[nH]ccc5c4)cc23)ccc1OC1CCOCC1 [Example 45, 5-(2-(1H-indol-5-yl)-1H-pyrrolo[2,3-b]pyridin-4-yl)-2-((tetrahydro-2H-pyran-4-yl)oxy)benzonitrile] | 32 nM | 32.2 nM
CN(C)Cc1ccc(-c2nc3c(-c4ccc(OC5CCN(C(=O)C(F)F)CC5)c(C#N)c4)ncnc3[nH]2)cc1 [Example 267, 2-((1-(2,2-difluoroacetyl)piperidin-4-yl)oxy)-5-(8-(4-((dimethylamino)methyl)phenyl)-9H-purin-6-yl)benzonitrile] | 1000 nM | 1000 nM
N#Cc1cc(-c2ncnc3[nH]c(-c4cccc(N5CCOCC5)c4)cc23)ccc1CN1CCOCC1 [Example 113, 2-(morpholinomethyl)-5-(6-(3-morpholinophenyl)-7H-pyrrolo[2,3-d]pyrimidin-4-yl)benzonitrile] | 69.1 nM | 1000 nM
Cn1cc(-c2nc3c(-c4ccc(OC5CCOCC5)c(C#N)c4)ncnc3[nH]2)cn1 [Example 213, 5-(8-(1-methyl-1H-pyrazol-4-yl)-9H-purin-6-yl)-2-((tetrahydro-2H-pyran-4-yl)oxy)benzonitrile] | 12.4 nM | 30.2 nM
N#CCC(=O)N1CC[C@@H](Oc2ccc(-c3ccnc4[nH]c(-c5ccc(N6CCOCC6)cc5)cc34)cc2C#N)C1 [Example 16, (R)-2-((1-(2-cyanoacetyl)pyrrolidin-3-yl)oxy)-5-(2-(4-morpholinophenyl)-1H-pyrrolo[2,3-b]pyridin-4-yl)benzonitrile] | 4.32 nM | 13.8 nM
CN1CCN(c2ccc(-c3nc4c(-c5ccc(OC6CCN(C(=O)C(F)F)CC6)c(C#N)c5)ncnc4[nH]3)cc2)CC1 [Example 268, 2-((1-(2,2-difluoroacetyl)piperidin-4-yl)oxy)-5-(8-(4-(4-methylpiperazin-1-yl)phenyl)-9H-purin-6-yl)benzonitrile] | 3.92 nM | 2.25 nM
N#Cc1cc(-c2ncnc3[nH]c(-c4ccc(N5CCOCC5)cc4)cc23)ccc1OC1CC2(COC2)C1 [Example 164, 2-(2-Oxaspiro[3.3]heptan-6-yloxy)-5-(6-(4-morpholinophenyl)-7H-pyrrolo[2,3-d]pyrimidin-4-yl)benzonitrile] | 56.1 nM | 95.1 nM
Cc1cc(N2CCOCC2)ccc1-c1cc2c(-c3ccc(OC4CCOCC4)c(C#N)c3)ccnc2[nH]1 [Example 124, 5-(2-(2-methyl-4-morpholinophenyl)-1H-pyrrolo[2,3-b]pyridin-4-yl)-2-((tetrahydro-2H-pyran-4-yl)oxy)benzonitrile] | 5.9 nM | 18.6 nM
N#Cc1cc(-c2ncnc3[nH]c(-c4cccc(N5CCOCC5)c4)cc23)ccc1OC1CCOCC1 [Example 103, 5-(6-(3-morpholinophenyl)-7H-pyrrolo[2,3-d]pyrimidin-4-yl)-2-((tetrahydro-2H-pyran-4-yl)oxy)benzonitrile] | 2.63 nM | 18.9 nM
Cc1cc(N2CCOCC2)ccc1-c1cc2c(-c3ccc(OC4CCNCC4)c(C#N)c3)ncnc2[nH]1 [Example 120, 5-(6-(2-methyl-4-morpholinophenyl)-7H-pyrrolo[2,3-d]pyrimidin-4-yl)-2-(piperidin-4-yloxy)benzonitrile] | 22.2 nM | 102 nM
Cc1noc(C)c1-c1cc2c(-c3ccc(OC4CCOCC4)c(C#N)c3)ccnc2[nH]1 [Example 216, 5-(2-(3,5-dimethylisoxazol-4-yl)-1H-pyrrolo[2,3-b]pyridin-4-yl)-2-((tetrahydro-2H-pyran-4-yl)oxy)benzonitrile] | 67.6 nM | 121 nM
N#Cc1cc(-c2ncnc3[nH]c(-c4ccc(CC(=O)O)cc4)cc23)ccc1OC1CCOCC1 [Example 168, 2-(4-(4-(3-Cyano-4-((tetrahydro-2H-pyran-4-yl)oxy)phenyl)-7H-pyrrolo[2,3-d]pyrimidin-6-yl)phenyl)acetic acid] | 13.7 nM | 15.7 nM
N#Cc1cc(-c2ccnc3[nH]c(-c4ccc5c(c4)OCC(=O)N5)cc23)ccc1OC1CCOCC1 [Example 75, 5-(2-(3-oxo-3,4-dihydro-2H-benzo[b][1,4]oxazin-7-yl)-1H-pyrrolo[2,3-b]pyridin-4-yl)-2-((tetrahydro-2H-pyran-4-yl)oxy)benzonitrile] | 6.28 nM | 10.5 nM
Cc1ncc(-c2cc3c(-c4ccc(OC5CCOCC5)c(C#N)c4)ncnc3[nH]2)s1 [Example 190, 5-(6-(2-methylthiazol-5-yl)-7H-pyrrolo[2,3-d]pyrimidin-4-yl)-2-((tetrahydro-2H-pyran-4-yl)oxy)benzonitrile] | 7.91 nM | 14.1 nM
N#Cc1cc(-c2ccnc3[nH]c(-c4ccc(N5CCOCC5)c(F)c4)cc23)ccc1OC1CCOCC1 [Example 77, 5-(2-(3-fluoro-4-morpholinophenyl)-1H-pyrrolo[2,3-b]pyridin-4-yl)-2-((tetrahydro-2H-pyran-4-yl)oxy)benzonitrile] | 10.9 nM | 38 nM
CC(C)(C)OC(=O)N1CC[C@@H](Oc2ccc(-c3ccnc4[nH]c(-c5ccc(N6CCOCC6)cc5)nc34)cc2C#N)C1 [Example 302, (R)-tert-butyl 3-(2-cyano-4-(2-(4-morpholinophenyl)-3H-imidazo[4,5-b]pyridin-7-yl)phenoxy)pyrrolidine-1-carboxylate] | > 1000 nM | > 1000 nM
N#Cc1cc(-c2ccnc3[nH]c(C(=O)NC4CC4)cc23)ccc1OC1CCOCC1 [Example 59, 4-(3-cyano-4-((tetrahydro-2H-pyran-4-yl)oxy)phenyl)-N-cyclopropyl-1H-pyrrolo[2,3-b]pyridine-2-carboxamide] | 79.4 nM | 55.4 nM
N#Cc1cc(-c2ncnc3[nH]c(-c4ccc(N5CCOCC5)cc4)cc23)ccc1OC1CCN(C(=O)CO)CC1 [Example 220, 2-((1-(2-hydroxyacetyl)piperidin-4-yl)oxy)-5-(6-(4-morpholinophenyl)-7H-pyrrolo[2,3-d]pyrimidin-4-yl)benzonitrile] | 0.503 nM | 1.48 nM
N#Cc1cc(-c2ncnc3[nH]c(-c4ccc(C5CCN(CC(F)(F)F)CC5)cc4)nc23)ccc1OC1CCN(C=O)CC1 [Example 259, 2-((1-formylpiperidin-4-yl)oxy)-5-(8-(4-(1-(2,2,2-trifluoroethyl)piperidin-4-yl)phenyl)-9H-purin-6-yl)benzonitrile] | 12.2 nM | 45.5 nM
CC(C)(O)c1ccc(-c2cc3c(-c4ccc(O[C@@H]5CCNC5)c(C#N)c4)ccnc3[nH]2)cc1 [Example 151, (R)-5-(2-(4-(2-hydroxypropan-2-yl)phenyl)-1H-pyrrolo[2,3-b]pyridin-4-yl)-2-(pyrrolidin-3-yloxy)benzonitrile] | 43 nM | 120 nM
N#Cc1cc(-c2ncnc3[nH]c(-c4ccc(N5CCN(C6COC6)CC5)cc4)cc23)ccc1OC1CCN(C(=O)CO)CC1 [Example 157, 2-((1-(2-hydroxyacetyl)piperidin-4-yl)oxy)-5-(6-(4-(4-(oxetan-3-yl)piperazin-1-yl)phenyl)-7H-pyrrolo[2,3-d]pyrimidin-4-yl)benzonitrile] | 0.849 nM | 1.43 nM
CNC(=O)c1cccc(-c2cc3c(-c4ccc(OC5CCOCC5)c(C#N)c4)ccnc3[nH]2)c1 [Example 40, 3-(4-(3-cyano-4-((tetrahydro-2H-pyran-4-yl)oxy)phenyl)-1H-pyrrolo[2,3-b]pyridin-2-yl)-N-methylbenzamide] | 7.98 nM | 11.1 nM
N#Cc1cc(-c2ncnc3[nH]c(-c4ccc(OCCN5CCCC5)cc4)cc23)ccc1OC1CCN(C(=O)CO)CC1 [Example 229, 2-((1-(2-hydroxyacetyl)piperidin-4-yl)oxy)-5-(6-(4-(2-(pyrrolidin-1-yl)ethoxy)phenyl)-7H-pyrrolo[2,3-d]pyrimidin-4-yl)benzonitrile] | 1.01 nM | 0.851 nM
